Test results taken from PubChem BioAssay AID248 (DTP/NCI, 2004).
Values joined by “and” are separate entries in the source; they are usually repeats but may differ in a detail not shown here. Identical values can stand only once. Inconclusive results and toxic doses are left out. Cut-off read from the data, not from the text of the source: active = T/C of 150% or more; inactive = T/C below 125%.

System: L1210 leukemia ip in BDF1 mice, survival T/C
Assay: NCI In Vivo Anticancer Drug Screen. Data for tumor model L1210 Leukemia (intraperitoneal) in B6D2F1 (BDF1) mice
Conditions: endpoint: mean survival time, higher = longer survival
In short: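 In this screen, tumor-bearing mice given compound are compared to those given vehicle, and their survival values are reported as a treated-to-control quotient.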

[1] = dose: 75.0 mg/kg/injection, schedule: Q01DX001 (ip), vehicle: saline
[2] = dose: 150.0 mg/kg/injection, schedule: Q01DX001 (ip), vehicle: saline
[3] = dose: 300.0 mg/kg/injection, schedule: Q01DX001 (ip), vehicle: saline
[4] = dose: 100.0 mg/kg/injection, schedule: Q01DX009 (ip), vehicle: saline with Tween-80
[5] = dose: 200.0 mg/kg/injection, schedule: Q01DX009 (ip), vehicle: saline with Tween-80
[6] = dose: 400.0 mg/kg/injection, schedule: Q01DX009 (ip), vehicle: saline with Tween-80
[7] = dose: 100.0 mg/kg/injection, schedule: Q01DX001 (ip), vehicle: Klucel (hydroxypropylcellulose) (HPC)
[8] = dose: 200.0 mg/kg/injection, schedule: Q01DX001 (ip), vehicle: Klucel (hydroxypropylcellulose) (HPC)
[9] = dose: 100.0 mg/kg/injection, schedule: Q04DX003 (ip), vehicle: saline
[10] = dose: 100.0 mg/kg/injection, schedule: Q01DX001 (ip), vehicle: saline
[11] = dose: 200.0 mg/kg/injection, schedule: Q01DX001 (ip), vehicle: saline
[12] = dose: 400.0 mg/kg/injection, schedule: Q01DX001 (ip), vehicle: saline
[13] = dose: 100.0 mg/kg/injection, schedule: Q04DX003 (ip), vehicle: Klucel (hydroxypropylcellulose) (HPC)
[14] = dose: 200.0 mg/kg/injection, schedule: Q04DX003 (ip), vehicle: Klucel (hydroxypropylcellulose) (HPC)
[15] = dose: 400.0 mg/kg/injection, schedule: Q04DX003 (ip), vehicle: Klucel (hydroxypropylcellulose) (HPC)
[16] = dose: 100.0 mg/kg/injection, schedule: Q04DX003 (ip), vehicle: saline with Tween-80
[17] = dose: 200.0 mg/kg/injection, schedule: Q04DX003 (ip), vehicle: saline with Tween-80
[18] = dose: 50.0 mg/kg/injection, schedule: Q01DX001 (ip), vehicle: Klucel (hydroxypropylcellulose) (HPC)

Measured: T/C

O=C1CC(=P(c2ccccc2)(c2ccccc2)c2ccccc2)C(=O)N1c1cccc2ccc(O)cc12
inactive: [1] 101 % of control | [2] 96 % of control | [3] 95 % of control

C=CCOc1cc2c(ccc1=O)-c1c(cc(OC)c(OC)c1OC)CCC2NC(C)=O (configuration not stated)
inactive: dose: 100.0 mg/kg/injection, schedule: Q01DX001 (ip), vehicle: carboxymethylcellulose (CMC) 104 % of control | dose: 200.0 mg/kg/injection, schedule: Q01DX001 (ip), vehicle: carboxymethylcellulose (CMC) 106 % of control | dose: 400.0 mg/kg/injection, schedule: Q01DX001 (ip), vehicle: carboxymethylcellulose (CMC) 104 % of control

CCOP(=O)(OCC)C(=Cc1ccccc1)P(=O)(OCC)OCC
inactive: dose: 100.0 mg/kg/injection, schedule: Q01DX001 (ip), vehicle: saline with Tween-80 106 % of control | [4] 107 % of control | dose: 200.0 mg/kg/injection, schedule: Q01DX001 (ip), vehicle: saline with Tween-80 103 % of control | [5] 105 % of control | dose: 400.0 mg/kg/injection, schedule: Q01DX001 (ip), vehicle: saline with Tween-80 103 % of control | [6] 107 % of control

O=C(c1ccccn1)C(O)c1ccccn1 (configuration not stated)
inactive: dose: 50.0 mg/kg/injection, schedule: Q04DX002 (ip), vehicle: Klucel (hydroxypropylcellulose) (HPC) 96 % of control | dose: 100.0 mg/kg/injection, schedule: Q04DX002 (ip), vehicle: Klucel (hydroxypropylcellulose) (HPC) 99 % of control | dose: 200.0 mg/kg/injection, schedule: Q04DX002 (ip), vehicle: Klucel (hydroxypropylcellulose) (HPC) 96 % of control

COc1ccccc1-n1c(O)c(N=Nc2ccccc2C)c(=O)n(-c2ccccc2)c1=S
inactive: [7] 110 % of control | [8] 96 % of control | dose: 400.0 mg/kg/injection, schedule: Q01DX001 (ip), vehicle: Klucel (hydroxypropylcellulose) (HPC) 96 % of control

CC/C(=N\NS(=O)(=O)c1ccc(C)cc1)C(C)C
inactive: [1] 95 % of control | dose: 75.0 mg/kg/injection, schedule: Q04DX003 (ip), vehicle: saline 91 % of control | [2] 95 % of control | dose: 150.0 mg/kg/injection, schedule: Q04DX003 (ip), vehicle: saline 100 % of control | [3] 97 % of control | dose: 300.0 mg/kg/injection, schedule: Q04DX003 (ip), vehicle: saline 96 % of control

Cc1cc(C(=O)O)c(C(=O)O)c(Cl)n1
inactive: dose: 75.0 mg/kg/injection, schedule: Q01DX001 (ip), vehicle: other 90 % of control | dose: 150.0 mg/kg/injection, schedule: Q01DX001 (ip), vehicle: other 95 % of control | dose: 300.0 mg/kg/injection, schedule: Q01DX001 (ip), vehicle: other 91 % of control

CCOC(=O)CNC(=O)C1CSC(C)(C)N1C=O (configuration not stated)
inactive: [9] 101 % of control | dose: 200.0 mg/kg/injection, schedule: Q04DX003 (ip), vehicle: saline 94 % of control | dose: 400.0 mg/kg/injection, schedule: Q04DX003 (ip), vehicle: saline 101 % of control

O=C1NN=C2CCCCC12 (configuration not stated)
inactive: dose: 100.0 mg/kg/injection, schedule: Q04DX003 (ip), vehicle: other 107 % of control | dose: 200.0 mg/kg/injection, schedule: Q04DX003 (ip), vehicle: other 97 % of control | dose: 400.0 mg/kg/injection, schedule: Q04DX003 (ip), vehicle: other 102 % of control

CCN1Cc2ccc(O)cc2C1
inactive: dose: 25.0 mg/kg/injection, schedule: Q01DX009 (ip), vehicle: saline 103 % of control | dose: 25.0 mg/kg/injection, schedule: Q04DX003 (ip), vehicle: saline 107 % of control | dose: 50.0 mg/kg/injection, schedule: Q01DX009 (ip), vehicle: saline 95 % of control | dose: 50.0 mg/kg/injection, schedule: Q04DX003 (ip), vehicle: saline 107 % of control | dose: 100.0 mg/kg/injection, schedule: Q01DX009 (ip), vehicle: saline 96 % of control and 97 % of control | [9] 100 % of control and 102 % of control

CC(=O)OC1=C(C)C2=C3OC(=O)C(C)=C3CC[C@@]2(C)CC1
inactive: [10] 97 % of control | [11] 101 % of control | [12] 95 % of control

CCNC(=O)c1cc(NCC)nc(Cl)n1
inactive: [13] 97 % of control | [14] 94 % of control | [15] 101 % of control

NC(=O)c1[nH]cnc1N
inactive: [10] 97 % of control | [11] 101 % of control | [12] 97 % of control

O=C(NCCCl)Nc1ccc2c(c1)Cc1ccccc1-2
inactive: [13] 108 % of control | [14] 93 % of control | [15] 101 % of control

O=[N+]([O-])c1ccc(OCc2ccccc2)c([N+](=O)[O-])c1
inactive: [4] 90 % of control | [16] 90 % of control | [5] 87 % of control | [17] 90 % of control | [6] 87 % of control | dose: 400.0 mg/kg/injection, schedule: Q04DX003 (ip), vehicle: saline with Tween-80 89 % of control

CCOC(=O)NC(C)NC(=O)OCC
inactive: [10] 107 % of control | [11] 101 % of control | [12] 97 % of control

Cc1cc(C)c([N+](=O)[O-])cc1N
inactive: [18] 101 % of control | [7] 98 % of control | [8] 93 % of control

NC(N)=N/N=C(C(=O)O)/C(=N\N=C(N)N)C(=O)O
inactive: dose: 30.0 mg/kg/injection, schedule: Q01DX Z (oral), vehicle: carboxymethylcellulose (CMC) 101 % of control | dose: 60.0 mg/kg/injection, schedule: Q01DX Z (oral), vehicle: carboxymethylcellulose (CMC) 101 % of control | dose: 120.0 mg/kg/injection, schedule: Q01DX Z (oral), vehicle: carboxymethylcellulose (CMC) 101 % of control | dose: 240.0 mg/kg/injection, schedule: Q01DX Z (oral), vehicle: carboxymethylcellulose (CMC) 109 % of control | dose: 480.0 mg/kg/injection, schedule: Q01DX Z (oral), vehicle: carboxymethylcellulose (CMC) 106 % of control | dose: 960.0 mg/kg/injection, schedule: Q01DX Z (oral), vehicle: carboxymethylcellulose (CMC) 106 % of control

Nc1cc2ccc(S(=O)(=O)O)cc2cc1S(=O)(=O)O
inactive: [13] 100 % of control | [14] 97 % of control | [15] 91 % of control

ClC(Cl)(Cl)c1ccn(-c2ccccc2)n1
inactive: dose: 25.0 mg/kg/injection, schedule: Q01DX001 (ip), vehicle: Klucel (hydroxypropylcellulose) (HPC) 110 % of control | [18] 100 % of control | [7] 101 % of control and 110 % of control

CC(O)CN1CCCCC1 (configuration not stated)
inactive: dose: 100.0 mg/kg/injection, schedule: Q01DX001 (ip), vehicle: other 98 % of control | [16] 96 % of control | dose: 200.0 mg/kg/injection, schedule: Q01DX001 (ip), vehicle: other 98 % of control | [17] 96 % of control

NS(=O)(=O)c1ccc(Cc2[nH]c(=O)[nH]c(=O)c2Br)cc1
inactive: dose: 25.0 mg/kg/injection, schedule: Q01DX001 (ip), vehicle: saline 101 % of control | dose: 50.0 mg/kg/injection, schedule: Q01DX001 (ip), vehicle: saline 95 % of control | [10] 101 % of control
